From US20020052390A1, “METHODS AND MATERIALS FOR TREATING AND PREVENTING INFLAMMATION OF MUCOSAL TISSUE” (priority 1997, published 2002)
≈ marks a conversion by molar mass, not a printed value. Where “and” joins values, the source holds several entries; their conditions need not be identical. Equal entries are not always repeated. Where two headings read alike, the source gives them in different places.

Tests used:
[1] = tested on: non-invasive fungus-induced rhinosinusitis patients; experiment: Itraconazole nasal irrigation (Example 7); assay type: in vivo, human; settings: for adverse local reaction to nasal irrigations: third patient
Procedure: Three non-invasive fungus-induced rhinosinusitis patients (person, person, and person) were instructed to perform nasal irrigation with an itraconazole solution. The itraconazole solution contained about 100 mg of itraconazole per L of solution (10% PEG-400 in sterile water) and was prepared as described herein. […] Each patient reported marked improvement in symptoms within two weeks of starting the itraconazole irrigations (symptom scores: -1 to +2 and -1 to +1).
After treatment with itraconazole, that patient reported symptom improvement (symptom score: from -1 to 0).

[2] = tested on: patient with rhinosinusitis; experiment: Single patient study, one-sided then two-sided amphotericin B irrigation, RAST assay to Alternaria; assay type: in vivo, human
Text: In addition, the previously detected fungal load in the initially untreated side (right side) was sufficient to eventually cause presentation of visual or palpable rhinosinusitis symptoms in that initially untreated side. Further, the fungal organisms present in the initially untreated side (right side) induced high IgE titers, as shown by IgE readings from the RAST assays, independent of concurrent reduction of fungal organisms by antifungal treatment applied to the left side. In this case, a reduction of IgE readings from the RAST assays was only observed after irrigating both sides with an antifungal agent. Thus, the reduction of IgE and the prevention of disease symptoms coincided with the treatment of both sides with an antifungal agent.

[3] = tested on: fungal organisms within their mucus; experiment: Analysis of mucus samples of non-responding patients for resistance; assay type: cell-based; settings: five of the nine non-responding patients
Text: Eleven of the 53 patients went from endoscopic evaluation stage 2 or 3 to stage 1 after three months. […] Five of the nine non-responding patients had previously collected mucus samples that were available for examination.

[4] = tested on: non-invasive fungus-induced rhinosinusitis patients; experiment: Patient data collected during a one week period (amphotericin B nasal irrigations); assay type: in vivo, human; set-up: Endoscopy Score B / Endoscopy Score A / Symptom Score B: scale not given here
Text: In addition to patient interviewing, CT scan analysis, visual examination, and fungal culture analysis, two types of evaluations were used to score the success of the treatment: an endoscopic evaluation and a patient symptom evaluation. These evaluations were scored as follows:
Only previously seen patients that were instructed to use the antifungal amphotericin B nasal irrigations were entered into this study.
During a one week period, twenty patients returned to the physician's office (Table II). The average age of the returning patients was 47 years (range 16-74 years). The patients were using the amphotericin B irrigations for an average duration of about six months (range 1-16 months). […] In addition, some patients were using topical and systemic steroid therapy. Further, some patients were using an antibiotic nasal irrigation in addition to the antifungal irrigations. The antibacterial solution contained 80 mg gentamicin per L saline (Wilson's solution). Some patients mixed the antibacterial solution with the antifungal solution and then performed the nasal irrigations while others used each solution separately in a sequential manner. Some patients also had other diseases including asthma (15 of the 20 patients) and colitis (2 of the 20 patients).

[5] = tested on: patients with chronic asthma; experiment: Chronic asthma symptoms in patients of the Example 2 study (Example 5); assay type: in vivo, human
Procedure: One hundred and thirty-two consecutive rhinosinusitis patients were entered into a study to evaluate the use of an antifungal agent to treat non-invasive fungus-induced rhinosinusitis. […] The 125 non-invasive fungus-induced rhinosinusitis patients were started on an antifungal treatment of about 20 mL of an amphotericin B solution per nostril, two to four times daily for at least three months. The concentration of the amphotericin B solution was about 100 mg per liter of saline or water. A 20 mL bulb was used by the patient to mucoadminister the amphotericin B solution into the patient's nasal-paranasal anatomy. Data were compiled for 53 of the patients who had returned for their three month follow-up analysis.

[6] = tested on: non-invasive fungus-induced rhinosinusitis patient; experiment: Eosinophil count in mucosal biopsies after amphotericin B irrigations (Example 4); assay type: in vivo, human
Text: A person was diagnosed with non-invasive fungus-induced rhinosinusitis and instructed to perform amphotericin B irrigations twice a day. After nine months of amphotericin B irrigations, the patient underwent sinus surgery for further improvement. During the surgery mucosal biopsies were collected and the eosinophil count compared to the those obtained from biopsies collected from the patient during a surgery prior to the antifungal treatment.

[7] = tested on: non-invasive fungus-induced rhinosinusitis patients; experiment: Amphotericin B nasal irrigation study, three month follow-up (Example 2); assay type: in vivo, human
Text: In addition to patient interviewing, CT scan analysis, visual examination, and fungal culture analysis, two types of evaluations were used to score the success of the treatment: an endoscopic evaluation and a patient symptom evaluation.

[8] = tested on: non-invasive fungus-induced rhinosinusitis patients; experiment: Amphotericin B irrigations in patients without previous nasal surgery (Example 3); assay type: in vivo, human
Text: A person was diagnosed with non-invasive fungus-induced rhinosinusitis and instructed to perform amphotericin B irrigations twice a day.
A person was diagnosed with non-invasive fungus-induced rhinosinusitis and instructed to perform amphotericin B irrigations twice a day, which was later increased to four times a day.
A person was diagnosed with non-invasive fungus-induced rhinosinusitis and instructed to perform amphotericin B irrigations twice a day. This patient had been given intramuscular steroid shots every 3 to 8 months with the last shot being administered about seven months prior to starting the amphotericin B irrigations.

Trichoderma = experiment: MIC, macro broth dilution technique (NCCLS), isolates from rhinosinusitis patients; assay type: cell-based; settings: 48 hour MIC reading
Procedure: (§1) The following procedure was used to determine effective antifungal agents as well as effective concentrations of antifungal agents such that the fungal organisms isolated from patients can be prevented from growing or killed.
(§2) Seventeen fungal isolates were collected from eight rhinosinusitis patients and tested for susceptibility against amphotericin B, ketoconazole, and itraconazole. Each antifungal agent was tested on these fungal isolates using the macro broth dilution technique according to the National Committee on Clinical Laboratory Standards (NCCLS) protocol. […] The results from this procedure provided an estimate of the efficacy of antifungal agents against specific fungal isolates in vitro.

Geotrichum = experiment: as above; assay type: cell-based; settings: 48 hour MIC reading
Procedure: as §1, §2

[9] = Concentrations of itraconazole in solution by HPLC; assay type: physicochemical; settings: read-out: Soluble Itraconazole Concentration
Procedure: Itraconazole formulations were made by dissolving itraconazole into polyethylene glycol (PEG) to form an itraconazole stock solution. […] Typically, PEG 400 was used to dissolve the itraconazole. Once dissolved, the stock solution was filtered to remove any insoluble material. Then, the stock solution was prepared for use by dilution with sterile water. […] One liter of heated (70° C.) PEG-400 was added to the graduated cylinder containing the itraconazole. The mixture was then placed onto a stirring hot plate and maintained at 70° C. for 30 minutes. After 30 minutes, the hot suspension was filtered through a urine stone filter into a glass container and allowed to cool to room temperature. Once cooled, 100 mL of the filtered solution was placed into an empty plastic bottle. Then, 900 mL of sterile water was added and the solution mixed. Once mixed, one drop of flavoring was added (peppermint oil). […] The following concentrations of itraconazole were determined for each indicated solution by HPLC (Table III).

[10] = tested on: patient with asthma symptoms; experiment: Itraconazole nasal irrigation in an asthma patient, pulmonary function (Example 8); assay type: in vivo, human; settings: before antifungal treatment
Procedure: Sputum and nasal-paranasal mucus samples were collected and analyzed.
The concentration of the itraconazole solution was about 100 mg per liter. After a few weeks, the patient took their last course of systemic steroids. About two months after stopping the systemic steroids, the patient also stopped using the topical steroids as well as the bronchodilator.

[11] = Oral itraconazole capsule, drug remaining in the bowel lumen (Example 10); assay type: in vivo, human; settings: 100 mg capsule before bedtime, two hours after last meal, without cola
Text: Three out of five consecutive patients with chronic rhinosinusitis reported having a history of colitis. […] Each patient was instructed to take the capsule before bedtime a minimum of two hours after their last meal and without any cola. Food and cola beverages increase absorption of the drug.

Cladosporium = experiment: MIC, macro broth dilution technique (NCCLS), isolates from rhinosinusitis patients; assay type: cell-based; settings: 48 h, 48 hour MIC reading, each table line is one isolate
Procedure: as §1, §2

Candida = experiment: as above; assay type: cell-based; settings: 48 h, 48 hour MIC reading, each table line is one isolate
Procedure: as §1, §2

Penicillium = experiment: as above; assay type: cell-based; settings: 48 h, 48 hour MIC reading, each table line is one isolate
Procedure: as §1, §2

[12] = after antifungal treatment (1-16 months, 1-2 x day), each table line is one patient
[13] = before antifungal treatment, each table line is one patient
[14] = patient symptom evaluation after treatment, 53 patients
[15] = sixteen days after starting the itraconazole irrigations

C[C@@H]1[C@H](O)[C@@H](C)/C=C/C=C/C=C/C=C/C=C/C=C/C=C/[C@H](O[C@@H]2O[C@H](C)[C@@H](O)[C@H](N)[C@@H]2O)C[C@@H]2O[C@](O)(C[C@@H](O)C[C@@H](O)[C@H](O)CC[C@@H](O)C[C@@H](O)CC(=O)O[C@H]1C)C[C@H](O)[C@H]2C(=O)O [Amphotericin B, amphotericin B]
adverse local reaction to nasal irrigations [1]: burning sensation | RAST reading to Alternaria ([2]; after right-side surgery and treatment of both sides for about seven weeks): 4.47 KU/L | clinical status ([2]; after treatment of both sides for about seven weeks): symptom-free | susceptibility of fungal organisms in mucus of non-responding patients [3]: resistant | Endoscopy Score A [4, 12]: 0 (10×) and 3 (5×) and 1 (2×) | Symptom Score A [4, 12]: +1 (6×) and +2 (6×) and 0 (6×) and −2 and 1 | Endoscopy Score B [4, 13]: 1 (3×) and 2 (5×) and 3 (10×) and 0 | Symptom Score B [4, 13]: −1 (14×) and −2 (6×) | endoscopic evaluation of rhinosinusitis condition ([4]; most of twenty patients): observable improvement | asthmatic patients declaring an improvement or complete elimination of asthma symptoms ([5]; after three months of antifungal treatment, 37 asthmatic patients): 28 of the 37 | patients with improved pulmonary function (pulmonary function test before and after) ([5]; four patients tested): all four | patients who stopped taking their asthma medication ([5]; of the 28 patients no longer exhibiting asthma symptoms): 26 of the 28 | eosinophil count in mucosal biopsies ([6]; all the sinuses except the frontal, after nine months of irrigations twice a day): < 5% | eosinophil count in the frontal sinus biopsy ([6]; frontal sinus (obstructed, irrigation presumably did not reach it), after nine months): 10% | patients who went from endoscopic evaluation stage 2 or 3 to stage 0 ([7]; about 20 mL amphotericin B solution (about 100 mg per liter) per nostril, two to four times daily, after three months, 53 patients): 33 of the 53 | CT scan finding ([7]; one patient with bilateral rhinosinusitis, 20 mL (100 mg/L) per nostril two times daily, after four months): complete disappearance of opacity and symptoms characteristic of rhinosinusitis | patients giving themselves symptom stage 0 [7, 14]: six of the 53 | patients giving themselves symptom stage 1 [7, 14]: three of the 53 | patients giving themselves symptom stage 2 [7, 14]: 44 of the 53 | patients who did not respond to the treatment (endoscopic evaluation) ([7]; same regimen, after three months, 53 patients): nine | number of different fungal species in mucus after treatment ([7]; several patients, mucus cultured before and after antifungal treatment): remarkably reduced | endoscopic score after treatment ([8]; amphotericin B irrigations twice (to four times) a day for four to sixteen months): 0 | symptom score before treatment ([8]; patients without previous nasal surgery): −1 | MIC (Trichoderma): 4 µg/mL (≈ 4.33 µM) | MIC (Geotrichum): 0.1 µg/mL (≈ 0.108 µM)

CCC(C)n1ncn(-c2ccc(N3CCN(c4ccc(OCC5COC(Cn6cncn6)(c6ccc(Cl)cc6Cl)O5)cc4)CC3)cc2)c1=O (centres unmarked) [Itraconazole, itraconazole]
symptom score before itraconazole irrigations ([1]; itraconazole solution about 100 mg per L (10% PEG-400 in sterile water)): -1 | endoscopic score, left side, before ([1]; one patient): 1 | endoscopic score, right side, before ([1]; one patient): 1 | endoscopic score, left side, after [1, 15]: 1 | endoscopic score, right side, after [1, 15]: 0 | adverse local reaction to nasal irrigations [1]: did not have any adverse local reaction | solubility ([9]; PEG-400, organic solvent or mixture, 500 mg Itraconazole powder AS into 250 mL PEG-400 (stock solution)): 1950 µg/mL (≈ 2760 µM) | solubility at 30 min ([9]; PEG-400, organic solvent or mixture, 2000 mg Itraconazole from capsules into 1 L PEG-400 (stock solution)): 1840 µg/mL (≈ 2610 µM) | solubility ([9]; PEG-400/sterile water solution, aqueous with cosolvent or surfactant or cyclodextrin, kinetic from dmso stock, 100 mL capsule stock solution diluted with 900 mL sterile water): 113 µg/mL (≈ 160 µM) | solubility ([9]; PEG-400/sterile water solution, aqueous with cosolvent or surfactant or cyclodextrin, kinetic from dmso stock, 100 mL capsule stock solution plus 25 mL PEG-400 diluted with 875 mL sterile water): 155 µg/mL | solubility ([9]; PEG-400/sterile water solution, aqueous with cosolvent or surfactant or cyclodextrin, kinetic from dmso stock, 100 mL capsule stock solution plus 150 mL PEG-400 diluted with 750 mL sterile water): 179 µg/mL | solubility ([9]; PEG-400/sterile water solution, aqueous with cosolvent or surfactant or cyclodextrin, kinetic from dmso stock, 100 mL powder AS stock solution diluted with 900 mL sterile water): 85 µg/mL (≈ 120 µM) | forced expiratory volume in 1 second (FEV1) before treatment [10]: 3.34 L | forced vital capacity (FVC) before treatment [10]: 3.99 L | maximal forced expiratory flow (FEFmax) before treatment [10]: 9.1 liter per second | maximum voluntary ventilation (MVV) before treatment [10]: 119 liter per minute | itraconazole that should remain in the bowel lumen [11]: about 50% | MIC (Cladosporium): 0.125 µg/mL (≈ 0.177 µM) | MIC (Candida): 0.03 µg/mL (≈ 0.0425 µM) | MIC (Penicillium): 0.5 µg/mL (≈ 0.709 µM)

CC(=O)N1CCN(c2ccc(OCC3COC(Cn4ccnc4)(c4ccc(Cl)cc4Cl)O3)cc2)CC1 (centres unmarked) [Ketoconazole, ketoconazole]
MIC (Trichoderma; read-out: MIC): 50 µg/mL (≈ 94.1 µM) | MIC (Geotrichum; read-out: MIC): 0.05 µg/mL (≈ 0.0941 µM)
